Experimental findings from ChEMBL document CHEMBL3507680, “University of Dundee, Gates Library screen for HepG2 cell viability” are described below.

The nature of this data set: Human HepG2 cell viability assay in 384 well format. The class given is toxicity, cell-based. The arrangement: dose 125 nL, time 70.5 hour; concentration not given beside the values. The note with it: HepG2 cells, read-out: Inhibition.
Turning to `Cc1ccc(C)c(C(NC(=O)C2CC2)c2cccnc2)c1` (stereo not given), the cytotoxicity at 70.5 h was -1.23%.

As to `COCCN1C[C@@H]2[C@@H](OC)CCN(S(=O)(=O)c3cccnc3)[C@@H]2C1`, the cytotoxicity at 70.5 h was -12.3%.

For `CN(C)c1ncnc2c1CCN(CC1CCCC1)CC2`, the cytotoxicity at 70.5 h is -13.2%.

Turning to `CCCNC(=O)Cc1c(C)nc2c(c1C)c(=O)[nH]n2C`, the cytotoxicity at 70.5 h is 1.36%.

With `CC(=O)N[C@@H]1CN(Cc2ccc(F)cc2F)C[C@H]1c1ccc(C)o1`, the cytotoxicity at 70.5 h was 11.7%.

Regarding `CCc1ccc(Cn2nccc2NC(=O)C2CCS(=O)(=O)C2)cc1` (stereo not given), the cytotoxicity at 70.5 h is -3.51%.

Turning to `CC(=O)N1Cc2ccccc2CC1C(=O)Nc1ccc(N(C)C)cn1` (stereo not given), the cytotoxicity at 70.5 h is -24.9%.

As for `O=S1(=O)C[C@@H]2[C@H](C1)N(Cc1nc3ccccc3[nH]1)CCN2CC1CC1`, the cytotoxicity at 70.5 h was -5.06%.

As for `CCc1nc(C2CCCN(C(=O)c3ccc(OC)cc3)C2)no1` (stereo not given), the cytotoxicity at 70.5 h is 0.812%.

For `CC(C)(C)c1noc(CN2CCCc3cc(OC(F)(F)F)ccc32)n1`, the cytotoxicity at 70.5 h was -2.73%.

On to `Cn1ncnc1NCc1ccc(F)cc1`, for which the cytotoxicity at 70.5 h is -9.9%.

As to `O=C(NCc1ccc(Cl)s1)NCc1nnc2n1CCCCC2`, the cytotoxicity at 70.5 h was -14.9%.

With `CC(C)c1nnc2n1CCN(C(C(N)=O)c1ccc(F)cc1)C2` (stereo not given), the cytotoxicity at 70.5 h was -21.3%.

As for `Cc1cc(C)c2cc(CNCc3ccco3)c3nn(C)c(=O)n3c2c1`, the cytotoxicity at 70.5 h was determined as 19.9%.

`O=C(Nc1nncs1)NC1CCN(Cc2ccccc2)C1` (stereo not given): the cytotoxicity at 70.5 h was -5.56%.

On to `O=C(NCc1ccccn1)[C@]12COC[C@H]1CN(C1CCC1)C2`, for which the cytotoxicity at 70.5 h was -10.3%.

Turning to `Cc1noc(C)c1C(=O)NCC(C)N1CCc2ccccc21` (stereo not given), the cytotoxicity at 70.5 h amounted to 9.63%.

Consider `CC(C)n1ncc2c1NC(=O)CC21C(=O)Nc2c(Cl)ccc(Cl)c21` (stereo not given), for which the cytotoxicity at 70.5 h is -12.2%.

As for `CC(C)c1nn(C)c(N(C)C)c1CNC1CCN(CC2CC2)CC1`, the cytotoxicity at 70.5 h came to 0.338%.

In the case of `O=C(CC1CCCC1)N1C[C@H](OCc2ccncc2)[C@H]2OCCC[C@H]21`, the cytotoxicity at 70.5 h was -27.1%.

For the compound `CC(C)(C(=O)NCC(=O)NCc1ccccc1)c1ccccc1F`, the cytotoxicity at 70.5 h is 3.35%.

`CC(C)(C)c1cnc(CN2CCC(NC(=O)C3CCOCC3)CC2)o1`: the cytotoxicity at 70.5 h was -5%.

Turning to `O=c1cc(N2CCCC2)cnn1CCc1cccc(F)c1`, the cytotoxicity at 70.5 h amounted to 34.6%.

Regarding `CCN1CCC(N2CCC(C(=O)N(C)C)CC2)CC1`, the cytotoxicity at 70.5 h was -5.59%.

Take `CN1CCN(Cc2ccncc2)C(=O)C12CCN(Cc1ccsc1)CC2`: the cytotoxicity at 70.5 h stood at 2.26%.

Regarding `CCc1cn[nH]c1C1CCCN(C(=O)c2cnc(NC(C)C)nc2)C1` (stereo not given), the cytotoxicity at 70.5 h was -5.16%.

For `CCN1CCn2c(C)cnc2C12CCN(C(=O)C(C)C)CC2`, the cytotoxicity at 70.5 h is -15.2%.

Turning to `Fc1ccc(CN2CCc3ncnc(C4CC4)c3CC2)cc1`, the cytotoxicity at 70.5 h came to 1.98%.

On to `CCN(CC)Cc1ccccc1NC(=O)N(C)Cc1ccccc1O`, for which the cytotoxicity at 70.5 h was -6.5%.

With `CC(C)(C)N1CCN(C(=O)c2cccnc2-n2cncn2)CC1`, the cytotoxicity at 70.5 h is 0.2%.

Take `CCc1cc(NCCCC2CCOC2)n2nccc2n1` (stereo not given): the cytotoxicity at 70.5 h was -1.93%.

Consider `Cn1ncc2c(NC3CCC3)nc(-c3ccncc3)nc21`, for which the cytotoxicity at 70.5 h is -0.235%.

In the case of `CC(Sc1nnnn1C1CCOCC1)C(=O)NC1CCCCC1` (stereo not given), the cytotoxicity at 70.5 h is -3.49%.

As for `CC(Cn1cccn1)NC(=O)NCc1ccc(OC2CCCC2)nc1` (stereo not given), the cytotoxicity at 70.5 h came to 19.5%.

With `CN(Cc1nccn1C)C1CCN(CCc2ccccn2)CC1`, the cytotoxicity at 70.5 h was 0.568%.

Consider `COc1ccc(-n2c(SC)nc(O)c(Cc3ccccc3)c2=O)cc1`, for which the cytotoxicity at 70.5 h was -2.29%.

On to `Cc1nc(C)n(CC2CN(c3ncccn3)Cc3nccn3C2)n1` (stereo not given), for which the cytotoxicity at 70.5 h is -8.98%.

Take `CC(C)N(C)[C@@H]1CCN(Cc2ccco2)[C@H]1Cc1ccccc1`: the cytotoxicity at 70.5 h turned out to be 38.2%.

On to `Cc1nccn1C1(C(=O)O)CCN(Cc2ccc3c(c2)OCCO3)CC1`, for which the cytotoxicity at 70.5 h is -3.95%.

In the case of `CCc1sc(-c2nnc(CNCCn3cccn3)o2)cc1C`, the cytotoxicity at 70.5 h was -0.343%.

Turning to `Cc1nc(C2CCCN2CCS(C)(=O)=O)no1` (stereo not given), the cytotoxicity at 70.5 h is 21.3%.

Take `CS(=O)(=O)CCC(=O)Nc1cnn(-c2ccccc2Cl)c1`: the cytotoxicity at 70.5 h was 2.48%.

For `CCCN(C(=O)CN1CCn2c(nnc2C2CC2)C1)C1=CCCCC1`, the cytotoxicity at 70.5 h was -13.5%.

As to `Cn1ccc2ccc(C(=O)N3CCN(C(=O)OC(C)(C)C)CC3)cc21`, the cytotoxicity at 70.5 h stood at 3.39%.

In the case of `COCCCNC(=O)NCc1cccn1Cc1ccccc1C`, the cytotoxicity at 70.5 h is -20.3%.

Take `COCCc1noc(Cn2ccc3ncccc3c2=O)n1`: the cytotoxicity at 70.5 h was -7.6%.

On to `Cc1cnc(CN2CCOC(CN(C)c3cccnn3)C2)cn1` (stereo not given), for which the cytotoxicity at 70.5 h is -0.738%.

`COCc1ccccc1NCc1csc(NC(C)=O)n1`: the cytotoxicity at 70.5 h was -7.46%.

`CCN1CCN(Cc2nc(C)no2)CC1`: the cytotoxicity at 70.5 h came to 12.7%.

As for `CC[C@@H]1N(Cc2ccc(C)s2)CCC[C@]12CCC(=O)N2C`, the cytotoxicity at 70.5 h was -11.2%.

Regarding `N#CCCN(Cc1ccco1)C(=O)CCCNC(=O)c1ccccc1`, the cytotoxicity at 70.5 h is -15.9%.

For the compound `CN(C)C(=O)COc1ccccc1CNC1CCc2ncnn2C1` (stereo not given), the cytotoxicity at 70.5 h is -6.71%.

For `CNC(=O)c1cccc(NC(=O)NC(C)c2cc(C)oc2C)c1C` (stereo not given), the cytotoxicity at 70.5 h is -8.35%.

Take `N#Cc1ccc(N2CCC3(CCC(=O)N3CCN3CCCC3)CC2)nc1`: the cytotoxicity at 70.5 h is -9.44%.

On to `CN(Cc1cccc(OC(F)F)c1)Cc1nc2c(cnn2C)c(=O)[nH]1`, for which the cytotoxicity at 70.5 h is 2.1%.

As for `Cc1cncc(C(=O)N2CCCCC2c2nc[nH]n2)c1` (stereo not given), the cytotoxicity at 70.5 h is -4.36%.

Consider `CN(Cc1ccc2c(c1)OCCO2)c1ncc(S(N)(=O)=O)s1`, for which the cytotoxicity at 70.5 h is 8.35%.

On to `Cn1cc(CN2Cc3cn(C)nc3C(COCC3CC3)C2)cn1` (stereo not given), for which the cytotoxicity at 70.5 h is -5.92%.

For `CC(=O)N1CCCC(C(=O)NCCOc2cc(C)cc(C)c2)C1` (stereo not given), the cytotoxicity at 70.5 h was determined as 18%.

As for `COc1cccc(N2CCC(CNC(=O)NCc3ccco3)C2)c1` (stereo not given), the cytotoxicity at 70.5 h was -0.834%.

Regarding `COc1ccc(C)cc1CNCc1ccc(-n2nc(C)cc2C)nc1`, the cytotoxicity at 70.5 h came out at 5.93%.

Take `CCOCC(=O)N1Cc2cnc(-c3ccccc3)nc2C1`: the cytotoxicity at 70.5 h is -13%.

On to `Cc1cccc(NC2CCN(C(=O)Nc3ccc(F)c(F)c3)CC2)n1`, for which the cytotoxicity at 70.5 h is -4.64%.

With `O=C(NCc1ccco1)c1cc(N2CC[C@@H](O)C2)ccn1`, the cytotoxicity at 70.5 h came to 30.9%.

Turning to `Cc1cccc(-c2ccc(C(=O)NCCN3CCOCC3)c(=O)[nH]2)c1`, the cytotoxicity at 70.5 h is -6.01%.

With `Cn1cc(-c2csc(CN3CCOCC3)n2)cn1`, the cytotoxicity at 70.5 h was -1.08%.

`COCCOc1ccccc1C(=O)NCCN(C)C(C)C`: the cytotoxicity at 70.5 h worked out at 16.8%.

As for `N#Cc1cnn(-c2ccc(C(=O)N(C3CCCCC3)C3CC3)cc2)c1N`, the cytotoxicity at 70.5 h was -0.0932%.

On to `CN1CCCC(CNC(=O)CN(C)S(=O)(=O)c2cccnc2)C1` (stereo not given), for which the cytotoxicity at 70.5 h was determined as 6.09%.

For `CCOC(=O)c1nc(COc2c(C)occc2=O)no1`, the cytotoxicity at 70.5 h was -20.5%.

`C[C@@H](CO)Nc1nccc(-c2cnc3sc(Cl)cn3c2=O)n1`: the cytotoxicity at 70.5 h is -8.27%.

For `O=C(CC1CCN(CCc2ccccc2)CC1)N1CCCOCC1`, the cytotoxicity at 70.5 h is -1.73%.

Consider `CNC(=O)N1CCC2(CC1)c1ncc(-c3cccc(F)c3)n1CCN2C`, for which the cytotoxicity at 70.5 h was -1.6%.

For `COc1cccc(CNC(=O)c2nc3c(o2)CN(C(=O)N(C)C)C3)c1`, the cytotoxicity at 70.5 h was -8.42%.

On to `CC1CCN(Cn2nc(-c3ccc(F)cc3)oc2=O)CC1`, for which the cytotoxicity at 70.5 h amounted to 18.6%.

`Cc1ccc(Br)cc1NC(=O)NC1CCC2(C1)OCCO2` (stereo not given): the cytotoxicity at 70.5 h worked out at 18.1%.

Take `O=C1CC2(CCN(c3nccc(-c4cc(C(=O)O)ccn4)n3)CC2)CN1`: the cytotoxicity at 70.5 h was -8.17%.

With `c1cnn(CCNCc2nnc(C3CC3)o2)c1`, the cytotoxicity at 70.5 h came out at 48.9%.

Consider `CC(CCCC(C)(C)O)Nc1ccc(-c2nccn2C)nn1` (stereo not given), for which the cytotoxicity at 70.5 h was 0.443%.

Take `Cc1nc2c(c(N3CCN(Cc4ccco4)CC3)n1)CCNCC2`: the cytotoxicity at 70.5 h was -4.87%.

For `CCN(CC)c1ncnc2c1CCN(CC1CCOCC1)CC2`, the cytotoxicity at 70.5 h is -16.3%.

Take `O=C(CN1CCc2cncnc2C1)NC1CCCCNC1=O` (stereo not given): the cytotoxicity at 70.5 h turned out to be 0.54%.

As to `Cc1ncsc1C(=O)N(C)Cc1ccsc1`, the cytotoxicity at 70.5 h was -12.2%.

On to `CCN1CCCC12CCN(Cc1cccnc1OC)CC2`, for which the cytotoxicity at 70.5 h was -4.58%.

In the case of `COC1CCN(C(=O)CCn2cccn2)CC1`, the cytotoxicity at 70.5 h is -8.03%.

`CN(Cc1ccco1)[C@@H]1CN(Cc2ccco2)[C@@H]2CCCO[C@H]12`: the cytotoxicity at 70.5 h was -9.38%.

For `CC(C)c1nn(C)c(Cl)c1CNCc1ccc2c(c1)OCCO2`, the cytotoxicity at 70.5 h was 3.82%.

In the case of `CCCSCC(=O)N1C[C@@H]2CC[C@H](C1)N(Cc1ccccn1)C2=O`, the cytotoxicity at 70.5 h was -5.83%.

On to `O=C(C[C@@H]1COC[C@H]2CN(CC3CC3)C[C@@H]12)NCc1cccnc1`, for which the cytotoxicity at 70.5 h is -11.6%.

As to `Cc1c(CN2CCc3[nH]cnc3C2C2CC2)[nH]c2ccc(F)cc12` (stereo not given), the cytotoxicity at 70.5 h was determined as 4.41%.

Turning to `CCOc1ncc(NC(=O)c2ccco2)c(OCC)n1`, the cytotoxicity at 70.5 h was -0.599%.

Turning to `CCc1nc(CC)n(CC(=O)N(C)CC(F)(F)F)n1`, the cytotoxicity at 70.5 h is -4.55%.

For `Cc1nc(C(=O)N2CCN(S(C)(=O)=O)CC2)c(-c2ccccc2)s1`, the cytotoxicity at 70.5 h worked out at 9.71%.

With `O=C(O)CCc1cc2n(n1)CCN(Cc1ccc3[nH]ccc3c1)C2`, the cytotoxicity at 70.5 h is -2.66%.

As for `COc1ccccc1OCCCN(C)c1cc(C)nc(N)n1`, the cytotoxicity at 70.5 h is -4.86%.

With `Cc1cc(CSc2nc(=O)ccn2C(C)C)no1`, the cytotoxicity at 70.5 h was -3.31%.

Take `CC(C)c1nc(O)c2nnn(C[C@H]3CCCN(Cc4cccs4)C3)c2n1`: the cytotoxicity at 70.5 h was determined as 32.6%.

Take `CS(=O)(=O)NCC(Cc1cccc(F)c1)N1CCNC1=O` (stereo not given): the cytotoxicity at 70.5 h is -13.3%.

Regarding `CCCc1cc(NCc2nc(COC)no2)n2nccc2n1`, the cytotoxicity at 70.5 h is -0.144%.

For the compound `COc1c(CNCc2ccc(N3CCCC3)nc2)c(C(C)C)nn1C`, the cytotoxicity at 70.5 h was -9.28%.
